# Test results reported in patent US20230381291A1, “TUMOR-ASSOCIATED PEPTIDES AND USES THEREOF” (HUMANITAS MIRASOLE S.P.A., priority 2020, published 2023).
# Where a SMILES comes first, the peptide text is derived from it. The star is where a group is joined. Cbz = O=C(OCc1ccccc1)*
# What was measured:
# Type in all cases: cell-based, human
# [1] = system: Salmonella-infected 624-38 melanoma cells; assay: IFN-gamma release by CTL-Vax on Thp1 loaded with conditioned supernatant; conditions: supernatant of inhibitor-treated Salmonella-infected 624-38 loaded on Thp1, ratio 1:1, 72 hours
# Procedure: (§1) In order to elucidate the Salmonella mechanism of action, the present inventors employed several inhibitors in their in vitro experiments, including: Heptanol (Sigma, 1 mM), hemichannel blocker; proteasome inhibitors: MG132 (Sigma, 20 μM) and Epoxomycin (Sigma, 500 nM); UPR-inhibitor 4μ8c (10 μM).
# (§2) Human acute monocytic leukemia Thp1 cell line was loaded either with antigens at different concentration (20 uM-1.25 uM) or with conditioned medium and used to stimulate CTL-Vax (ratio 1:1). Cells supernatant was collected after 72 hours and IFN-gamma production was measured by ELISA (R&D). IFN-gamma released by CTLs co-cultured with unloaded Thp1 (spontaneous IFN-gamma release) was subtracted from IFN measured upon Ag-stimulation. Specificity of the activation was further assessed using an HLA-I pan blocker as control (10 ug/ml, Clone W6/32).
# [2] = system: Salmonella-infected 624-38 melanoma cells; assay: HLA-A*02:01-peptide binding assay on T2 cells (peptide release into supernatant); conditions: 624-38 cells treated with inhibitor; 4μ8c 10 μM, MG132 20 μM, Epoxomycin 500 nM
# Procedure: as §1
# Single bacterial colonies were grown overnight and restarted the next day to reach an absorbance at 600 nm of 0.6 corresponding to 0.6×10^9 colony-forming units (CFUs)/ml. Murine and human melanoma cells were incubated with bacteria for 90 minutes, at a cell-to-bacteria ratio of 1:50, in the appropriate medium added with L-Glutamine without antibiotics. Cells were washed with medium and incubated in medium supplemented with gentamicin ([…]) for 18 hours to kill extracellular bacteria. At the end of the incubation cells were harvested and then lysed for protein analysis while supernatant was collected and filtered through 0.22 μm filter eliminate potentially still alive bacteria.
# To assess peptides enrichment in the supernatant from tumor cell cultures following Salmonella treatment, T2 cells were incubated overnight at 37° C. at 2×10^5 cells/well in serum-free RPMI medium either with 100 μL of supernatant or with Mart-126-35 peptide (1 μM and 10 μM) as a positive control. […]
# CTL-Vax = assay: IFN-gamma assay for peptide recognition by CTLs (peptide-loaded Thp1, ELISA); conditions: synthesized peptides loaded on Thp1 at 20 μM-1.25 μM, ratio 1:1, 72 hours
# Procedure: as §2
Compound,CTL-Vax activation upon supernatant stimulation (IFN-gamma release) [1],peptide release prompted by Salmonella infection (HLA-A*02:01 MFI on T2 cells) [2],IFN-gamma production by CTL-VAX (CTL-Vax)
Cc1cc(=O)oc2c(C=O)c(O)ccc12 [4μ8c],lower activation,significantly impaired peptide release,–
CC(C)C[C@@H](C=O)NC(=O)[C@H](CC(C)C)NC(=O)[C@H](CC(C)C)NC(=O)OCc1ccccc1 [MG132] (Cbz-Leu-Leu-Leu-aldehyde),affected,affected,–
TMA747-44: candidate peptide from melanoma secretome that did not induce IFN-gamma production by CTL-VAX (AAGKGPLATGGIKKSGKK),–,–,all except TMA747-44 (SEQ ID NO. 5) were able to induce IFN-gamma production
